Results from patent US10233173B2, “Substituted 1,2,3-triazoles as NR2B-selective NMDA modulators” (JANSSEN PHARMACEUTICA NV, priority 2016, dated 2019).

These compounds were tested against human GluN1/GluN2B NMDA receptors (Homo sapiens, UniProt Q05586+Q13224) (assay: Cell-based calcium flux (FLIPR) assay on cloned human NR1/NR2B ion channels expressed in mammalian cells). Details: standard assay; glutamate at ~EC80; FLIPR calcium flux.
Procedure, shortened: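 Calcium influx followed by FLIPR fluorescence after 5 min compound exposure and a further 5 min co-agonist challenge: 10 μM glycine with glutamate at ~EC80 (standard) or EC40 (HTS).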

Chain of human GluN1/GluN2B NMDA receptors (Q13224 27-1484, other chains not shown): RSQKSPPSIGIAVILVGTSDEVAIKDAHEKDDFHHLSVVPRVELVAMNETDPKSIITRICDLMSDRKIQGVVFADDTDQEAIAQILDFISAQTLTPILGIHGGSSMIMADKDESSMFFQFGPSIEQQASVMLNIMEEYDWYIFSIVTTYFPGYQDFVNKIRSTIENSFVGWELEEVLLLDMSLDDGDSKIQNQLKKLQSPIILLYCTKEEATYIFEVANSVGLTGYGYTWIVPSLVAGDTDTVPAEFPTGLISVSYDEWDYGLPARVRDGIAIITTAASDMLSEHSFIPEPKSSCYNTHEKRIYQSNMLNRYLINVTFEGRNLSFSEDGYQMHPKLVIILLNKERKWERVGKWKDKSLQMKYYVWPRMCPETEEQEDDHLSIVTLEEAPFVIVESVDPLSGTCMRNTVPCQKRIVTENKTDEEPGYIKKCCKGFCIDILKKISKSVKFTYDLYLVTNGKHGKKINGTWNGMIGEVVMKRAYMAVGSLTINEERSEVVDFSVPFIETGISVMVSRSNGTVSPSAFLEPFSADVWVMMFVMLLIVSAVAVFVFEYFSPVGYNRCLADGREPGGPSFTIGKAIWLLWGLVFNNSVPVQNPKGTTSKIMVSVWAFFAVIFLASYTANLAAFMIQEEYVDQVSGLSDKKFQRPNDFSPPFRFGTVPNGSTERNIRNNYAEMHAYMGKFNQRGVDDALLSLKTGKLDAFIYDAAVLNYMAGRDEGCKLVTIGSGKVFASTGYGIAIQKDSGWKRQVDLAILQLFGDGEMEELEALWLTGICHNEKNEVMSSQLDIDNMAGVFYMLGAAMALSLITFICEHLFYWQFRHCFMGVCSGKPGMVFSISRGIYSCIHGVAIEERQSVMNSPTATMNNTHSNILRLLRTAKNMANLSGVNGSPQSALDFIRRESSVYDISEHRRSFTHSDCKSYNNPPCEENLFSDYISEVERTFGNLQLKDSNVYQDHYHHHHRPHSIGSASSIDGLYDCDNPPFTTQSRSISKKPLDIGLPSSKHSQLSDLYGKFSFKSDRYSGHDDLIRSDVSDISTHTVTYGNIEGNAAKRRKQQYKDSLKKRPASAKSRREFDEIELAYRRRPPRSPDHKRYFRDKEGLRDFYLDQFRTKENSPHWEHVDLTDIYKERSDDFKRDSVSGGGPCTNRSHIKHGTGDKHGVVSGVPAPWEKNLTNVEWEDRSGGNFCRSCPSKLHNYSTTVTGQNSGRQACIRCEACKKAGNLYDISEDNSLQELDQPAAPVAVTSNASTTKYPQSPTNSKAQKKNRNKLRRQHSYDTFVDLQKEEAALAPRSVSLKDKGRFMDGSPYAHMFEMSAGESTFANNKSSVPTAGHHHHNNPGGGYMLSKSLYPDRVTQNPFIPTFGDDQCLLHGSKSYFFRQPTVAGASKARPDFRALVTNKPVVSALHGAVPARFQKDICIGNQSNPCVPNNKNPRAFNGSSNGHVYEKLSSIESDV

Cc1c(COc2ncc(Cl)cn2)nnn1-c1cccc(C(F)F)c1 [Example 529, 5-Chloro-2-[[1-[3-(difluoromethyl)phenyl]-5-methyl-triazol-4-yl]methoxy]pyrimidine] and Cc1cc(-n2cc(COc3ncc(C(F)F)cn3)nn2)c(F)cc1F [Example 656, 5-(Difluoromethyl)-2-[[1-(2,4-difluoro-5-methyl-phenyl)triazol-4-yl]methoxy]pyrimidine] are within 1.5-fold of each other in IC50: 1.32 µM for the first, 1.51 µM for the second.

First: Fc1ccc(-n2cc(COc3ncc(N4CC(C(F)F)C4)cn3)nn2)cc1C(F)F [Example 421, 2-((1-(3-(Difluoromethyl)-4-fluorophenyl)-1H-1,2,3-triazol-4-yl)methoxy)-5-(3-(difluoromethyl)azetidin-1-yl)pyrimidine]
Second: Fc1ccc(-n2cc(COc3ncc(N4CC(F)C4)cn3)nn2)cc1C(F)F [Example 416, 2-((1-(3-(Difluoromethyl)-4-fluorophenyl)-1H-1,2,3-triazol-4-yl)methoxy)-5-(3-fluoroazetidin-1-yl)pyrimidine]
The IC50 of the first is 23-fold higher: 0.227 µM for the first, 0.01 µM for the second. The second is the more potent here.

First: Cc1cc(OCc2cn(-c3ccc(F)c(C)c3)nn2)ncn1 [Example 462, 4-[[1-(4-Fluoro-3-methyl-phenyl)triazol-4-yl]methoxy]-6-methyl-pyrimidine]
Second: Fc1ccc(-n2cc(COc3nccc(COCC(F)F)n3)nn2)cc1OC(F)F [Example 716, 4-((2,2-Difluoroethoxy)methyl)-2-((1-(3-(difluoromethoxy)-4-fluorophenyl)-1H-1,2,3-triazol-4-yl)methoxy)pyrimidine]
The IC50 of the first is 62-fold higher: 3.03 µM for the first, 0.049 µM for the second. The second is the more potent here.

For CC(F)(F)c1cc(-n2cc(COc3nccc(N4CCCC4)n3)nn2)ccc1Cl [Example 553, 2-[[1-[4-Chloro-3-(1,1-difluoroethyl)phenyl]triazol-4-yl]methoxy]-4-pyrrolidin-1-yl-pyrimidine], the IC50 was 0.043 µM.

Same assay, conditions: standard assay; human GluN1/GluN2B, calcium flux (FLIPR), glutamate ~EC80

Going from Cc1ccc(OCc2cn(-c3ccc(F)c(OC(F)F)c3)nn2)nc1 [Example 118, 2-[[1-[3-(Difluoromethoxy)-4-fluoro-phenyl]triazol-4-yl]methoxy]-5-methyl-pyridine] to Fc1ccc(-n2cc(COc3ccc(Cl)cn3)nn2)cc1C(F)F [Example 112, 5-Chloro-2-[[1-[3-(difluoromethyl)-4-fluoro-phenyl]triazol-4-yl]methoxy]pyridine], the IC50 rises from 0.026 µM to 0.056 µM (2.2-fold). The first is the more potent here.

Compared with Cc1cccc(OCc2cn(-c3ccc(F)c(C(F)F)c3)nn2)n1 [Example 113, 2-[[1-[3-(Difluoromethyl)-4-fluoro-phenyl]triazol-4-yl]methoxy]-6-methyl-pyridine], CC(C)c1ccnc(OCc2cn(-c3cccc(C(F)F)c3)nn2)n1 [Example 270] is 16-fold higher in IC50: 0.038 µM for the first, 0.617 µM for the second.

First: Cn1cc(NCc2cn(-c3ccc(F)c(OC(F)F)c3)nn2)cn1 [Example 102, N-[[1-[3-(Difluoromethoxy)-4-fluoro-phenyl]triazol-4-yl]methyl]-1-methyl-pyrazol-4-amine]
Second: FC(F)Oc1cc(-n2cc(CNc3ncco3)nn2)ccc1Cl [Example 97, N-[[1-[4-Chloro-3-(difluoromethoxy)phenyl]triazol-4-yl]methyl]oxazol-2-amine]
The IC50 of the first is 31-fold higher: 3.25 µM for the first, 0.106 µM for the second.

First: Fc1ccc(-n2cc(COc3ncc(C(F)(F)F)cn3)nn2)cc1C(F)(F)F [Example 76, 2-[[1-[4-Fluoro-3-(trifluoromethyl)phenyl]triazol-4-yl]methoxy]-5-(trifluoromethyl)pyrimidine]
Second: Cc1cc(-n2cc(COc3ncc(C(C)(C)O)cn3)nn2)ccc1F [Example 181, 2-[2-[[1-(4-Fluoro-3-methyl-phenyl)triazol-4-yl]methoxy]pyrimidin-5-yl]propan-2-ol]
The IC50 of the first is 2.8-fold lower: 0.035 µM for the first, 0.097 µM for the second. The first is the more potent here.

Going from CC(C)(O)c1cnc(OCc2cn(-c3cccc(OC(F)(F)F)c3)nn2)nc1 [Example 345, 2-[2-[[1-[3-(Trifluoromethoxy)phenyl]triazol-4-yl]methoxy]pyrimidin-5-yl]propan-2-ol] to CC(Oc1ncccn1)c1cn(-c2ccc(Cl)c(OC(F)F)c2)nn1 (racemic) [Example 53, (R/S)-2-[1-[1-[4-Chloro-3-(difluoromethoxy)phenyl]triazol-4-yl]ethoxy]pyrimidine], the IC50 falls from 0.284 µM to 0.026 µM (11-fold).
